In brackets after ≈: the same amount, converted by molar mass. Like-named read-outs stand apart in the source and are kept apart here. Blank lines part the entries; values can stand above or below the molecule they belong to.
Columns and labels:
[1] = tested on: ESBL-producing E. coli; test: Susceptibility testing MIC/MBC, broth microdilution (Example 2); format: cell-based, Escherichia coli; conditions: for MBC / MIC: Escherichia coli; for MBC: read-out: MBC; for MIC: read-out: MIC
[2] = tested on: Escherichia coli; test: MIC, broth microdilution (Example 1); format: cell-based; conditions: Escherichia coli, read-out: MIC
Method: (§1) Stock solutions of all antibacterial agents were prepared at 80-fold (80×) the final target concentration in the appropriate solvent and the solution was allowed to stand for 60 minutes. All antibacterial agents were in solution under these conditions. The final drug concentrations in the FIC assay plates were set to bracket the MIC value of each agent for each test organism, unless the strain was totally resistant to the test agent.
(§2) The test organisms were originally received from clinical sources, or from the American Type Culture Collection. Upon receipt, the isolates were streaked onto the appropriate growth medium: Chocolate Agar for H. influenzae, Tryptic Soy Agar II (Becton Dickinson, Sparks, Md.) supplemented with 5% defibrinated sheep blood for streptococci, and unsupplemented Tryptic Soy Agar II for all other organisms. Colonies were harvested from these plates and a cell suspension was prepared in Tryptic Soy Broth (Becton Dickinson) containing cryoprotectant. Aliquots were then frozen at −80° C. On the day prior to assay, the frozen seeds of the organisms to be tested in that session were thawed and streaked for isolation onto the appropriate agar medium plates and incubated overnight at 35° C.
(§3) The test medium for H. influenzae was Haemophilus Test Medium. Streptococci were tested in Mueller Hinton II Broth (Becton Dickinson; Lot 6235472) supplemented with 2% lysed horse blood (Cleveland Scientific, Bath, Ohio; Lot H88621). All other organisms were tested in Mueller Hinton II Broth (Becton Dickinson, Lot 6235472). The broth was prepared at 1.05× normal weight/volume to offset the 5% volume of the drugs in the final test plates.
(§4) In order to select the proper test concentrations for each drug combination, minimal inhibitory concentration (MIC) values were first determined using the broth microdilution method previously described (Clinical and Laboratory Standards Institute. Methods for Dilution Antimicrobial Susceptibility Tests for Bacteria That Grow Aerobically; Approved Standard—Seventh Edition. Clinical and Laboratory Standards Institute document M7-A7 [ISBN 1-56238-587-9]. Clinical and Laboratory Standards Institute, 940 West Valley Road, Suite 1400, Wayne, Pa. 19087-1898 USA, 2006).
(§5) The wells of standard 96-well microdilution plates (Falcon 3918) were filled with 150 μL of 100% DMSO using the Multidrop 384. These plates were used to prepare the drug “mother plates” which provided the serial drug dilutions for the drug combination plates. The Biomek 2000 was used to transfer 150 μl of each stock solution (80×) from the wells in Column 1 of a deep well plate to the corresponding wells in Column 1 of the mother plate and to make seven 2-fold serial dilutions. Two mother plates, one for each drug, were combined to form a “checkerboard” pattern by transfer of equal volumes (using a multi-channel pipette) to the drug combination plate. Row H and Column 8 each contained serial dilutions of one of the agents alone for determination of the MIC.
(§6) Plates were stacked 3 high, covered with a lid on the top plate, placed in plastic bags, and incubated at 35° C. for approximately 20 hours. Following incubation, the microplates were removed from the incubator and viewed from the bottom using a ScienceWare plate viewer. Prepared reading sheets were marked for the MIC of drug 1 (row H), the MIC of drug 2 (column 8) and the wells of the growth-no growth interface.

[3] = tested on: Klebsiella pneumoniae; test: MIC, broth microdilution (Example 1); format: cell-based; conditions: Klebsiella pneumoniae, read-out: MIC
Method: as §1, §2, §3, §4, §5, §6

[4] = tested on: ESBL-producing Klebsiella pneumoniae; test: Susceptibility testing MIC/MBC, broth microdilution (Example 2); format: cell-based; conditions: Klebsiella pneumoniae; for MBC: read-out: MBC
[5] = tested on: Haemophilus influenzae; test: MIC, broth microdilution (Example 1); format: cell-based; conditions: Haemophilus influenzae, read-out: MIC
Method: as §1, §2, §3, §4, §5, §6

[6] = tested on: Streptococcus pneumoniae; test: MIC, broth microdilution (Example 1); format: cell-based
Method: as §1, §2, §3, §4, §5, §6

[7] = tested on: Staphylococcus aureus; test: MIC, broth microdilution (Example 1); format: cell-based; conditions: Staphylococcus aureus, ATCC29213, S. aureus 0100 (ATCC 29213), FIC control; read-out: MIC
Method: as §1, §2, §3, §4, §5, §6

[8] = tested on: Enterococcus faecalis; test: MIC, broth microdilution (Example 1); format: cell-based; conditions: Enterococcus faecalis, ATCC29212, E. faecalis 0101 (ATCC 29212), FIC control; read-out: MIC
Method: as §1, §2, §3, §4, §5, §6

MIC range ([1]; E. coli (10) clinical isolates): 0.125 to 256 µg/mL
MIC ([1]; E. coli isolate no. 5401): 4 µg/mL (≈ 8.32 µM)
MIC ([1]; E. coli isolate no. 5411): 2 µg/mL (≈ 4.16 µM)
SMILES: CO/N=C(\C(=O)N[C@@H]1C(=O)N2C(C(=O)[O-])=C(C[N+]3(C)CCCC3)CS[C@H]12)c1csc(N)n1 [Cefepime]
MBC range ([1]; E. coli (10) clinical isolates): 0.25 to 512 µg/mL
MBC ([1]; E. coli isolate no. 5401): 4 µg/mL (≈ 8.32 µM)
MBC ([1]; E. coli isolate no. 5411): 4 µg/mL (≈ 8.32 µM)

MIC ([1]; E. coli isolate no. 5401): 0.25 µg/mL (≈ 0.574 µM)
MIC ([1]; E. coli isolate no. 5411): 8 µg/mL (≈ 18.4 µM)
MIC ([2]; E. coli 1587): 0.25 µg/mL
MIC ([2]; E. coli 2273 (ESBL)): 16 µg/mL
MIC ([3]; K. pneumoniae 1340): 0.12 µg/mL
MIC ([3]; K. pneumoniae 1461): 0.25 µg/mL
MIC ([4]; 1 K. pneumoniae isolate, read-out: MIC): 0.5 µg/mL (≈ 1.15 µM)
MIC ([4]; K. pneumonia isolate no. 5427, read-out: MIC): 0.5 µg/mL (≈ 1.15 µM)
MIC ([4]; K. pneumonia isolate no. 5436, read-out: MIC): 64 µg/mL (≈ 147 µM)
MIC ([4]; all K. pneumoniae except 1 isolate, read-out: MIC values): ≥ 8 µg/mL
SMILES: C[C@H]1[C@H](NC(=O)/C(=N\OC(C)(C)C(=O)O)c2csc(N)n2)C(=O)N1S(=O)(=O)O [Aztreonam]
MBC ([1]; E. coli isolate no. 5401): 0.25 µg/mL (≈ 0.574 µM)
MBC ([1]; E. coli isolate no. 5411): 32 µg/mL (≈ 73.5 µM)
MBC ([4]; K. pneumonia isolate no. 5427): 1 µg/mL (≈ 2.3 µM)
MBC ([4]; K. pneumonia isolate no. 5436): 64 µg/mL (≈ 147 µM)

MIC ([5]; H. influenzae 1224): 1 µg/mL
MIC ([5]; H. influenzae 2797 (BLNAR)): 1 µg/mL
MIC ([5]; H. influenzae 2798 (BLNAR)): 2 µg/mL
MIC ([5]; H. influenzae 2799 (BLNAR)): 0.25 µg/mL
MIC ([6]; S. pneumoniae 0877 (PRSP)): >32^a^ μg/mL
MIC ([6]; Streptococcus pneumoniae, PRSP, S. pneumoniae 0876 (PRSP), read-out: MIC): 2 µg/mL
MIC ([6]; Streptococcus pneumoniae, PRSP, S. pneumoniae 0877 (PRSP), read-out: MIC): > 32 µg/mL
MIC ([6]; Streptococcus pneumoniae, S. pneumoniae 0866 (PSSP), read-out: MIC): 0.06 µg/mL
MIC ([6]; Streptococcus pneumoniae, S. pneumoniae 0869 (PSSP), read-out: MIC): 0.06 µg/mL
SMILES: CC[C@H]1OC(=O)[C@H](C)[C@@H](O[C@H]2C[C@@](C)(OC)[C@@H](O)[C@H](C)O2)[C@H](C)[C@@H](O[C@@H]2O[C@H](C)C[C@H](N(C)C)[C@H]2O)[C@](C)(O)C[C@@H](C)CN(C)[C@H](C)[C@@H](O)[C@]1(C)O [Azithromycin]

MIC [7]: 4 µg/mL
SMILES: CC1(C)S[C@@H]2[C@H](NC(=O)[C@H](N)c3ccc(O)cc3)C(=O)N2[C@H]1C(=O)O [Amoxicillin]

MIC [8]: 8 µg/mL
MIC [7]: 16 µg/mL
SMILES: O=C(N[C@H](CO)[C@H](O)c1ccc([N+](=O)[O-])cc1)C(Cl)Cl [Chloramphenicol]

From patent US20100197650A1, “COMPOSITIONS AND METHODS OF TREATMENT COMPRISING CEFTAROLINE” (FOREST LABORATORIES HOLDINGS LTD., priority 2008, published 2010)
